Here are results for 48 molecules from PubChem BioAssay AID463136 (University of Pittsburgh Molecular Library Screening Center, 2010).

The subject of assay [1] is HCS imaging, dynein-mediated cargo transport inhibition. In words: blockers of dynein-driven microtubule transport – imaging, high-content imaging, dose response (AID 463136).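 Note: mouse mammary adenocarcinoma 3617.4 cells expressing GFP-tagged rat glucocorticoid receptor.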
Test in assay [2]: as above
To be noted: HCS imaging, dynein-mediated cargo transport inhibition; inhibition at max concentration; at 50 µM; stronger effect = higher value.

Inconclusive results are not listed. The source made the active and inactive calls. The rule behind the calls is not given here. Bounds are passed on as bounds.

Consider `COc1ccc(C(=O)Cn2c(C)nc([N+](=O)[O-])c2Br)cc1`, for which the IC50 in assay [1] was 3.56 µM. Moreover, in assay [2], the inhibition is 86.4%.
For the molecule `CC(C)n1c(O)c(C2c3cc(Cl)ccc3Oc3[nH]c(=O)n(C(C)C)c(=O)c32)c(=O)[nH]c1=O` (stereo unspecified), the IC50 in assay [1] is 13.6 µM. For the same molecule, in assay [2], the inhibition amounted to 64.2%.
`CN(C)CC(C(=O)c1ccccc1)c1ccccc1` (stereo unspecified): the IC50 in assay [1] was 8.37 µM. Moreover, the inhibition in assay [2] amounted to 70.5%.
For the molecule `COc1ccc(C(CCN(Cc2ccc(OC)c(OC)c2)C(=O)CCl)c2ccccc2)cc1` (stereo unspecified), the IC50 in assay [1] was 37 µM. Further, the inhibition in assay [2] is 70.4%.
On the same counts, the results for `Cc1ccc(-c2cn3nc(-c4ccccc4)c(-c4ccccc4)nc3n2)cc1` are 40.2 µM and 93.2%.
The like results for `Cc1ccc(C(C)C)c(OCC(=O)NN=C(CCl)CCl)c1` were, in that order, > 50 µM (inactive) and 36.3%.
Regarding `Cn1c(=O)c([N+](=O)[O-])c(Cl)c2ccccc21`, in assay [1], the IC50 was 39.4 µM. Moreover, the inhibition in assay [2] was 84%.
On the same counts, the results for `N#C/C(=C\c1cccs1)C(=O)c1ccccc1Cl` are > 50 µM (inactive) and 63.4%.
On the same counts, the results for `O=C(NC1CCCC1)C(c1ccc(F)cc1)N(Cc1ccc(F)cc1)C(=O)CCl` (stereo unspecified) are 38.5 µM and 73.1%.
`Cc1ccc(/C=C2/C(=O)ON=C2c2ccccc2)o1`: the IC50 in assay [1] was > 50 µM (inactive). Moreover, in assay [2], the inhibition is 15.6%.
The like results for `O=[N+]([O-])c1cc(S(=O)(=O)N2CCCCCC2)ccc1F` were, in that order, 33.7 µM and 87.3%.
Turning to `O=C(Cc1ccccc1)Nc1cccc(N2C(=O)C=CC2=O)c1`, the IC50 in assay [1] is > 50 µM (inactive). Besides, in assay [2], the inhibition came out at 4.22%.
As for `COCc1cc(S(=O)c2ccc(Cl)cc2)nc(C)n1` (stereo unspecified), in assay [1], the 50% inhibitory concentration (IC50) is 15.6 µM. In addition, in assay [2], the inhibition is 86.5%.
As to `CCOC(=O)/C(=C\c1cccnc1)C(=O)c1cc(C(C)=O)c(Nc2ccccc2)s1`, the IC50 in assay [1] is 9.84 µM. For the same molecule, the inhibition in assay [2] is 80.4%.
The like results for `Cc1[nH]c2ccccc2c1/C=N/Nc1ccc([N+](=O)[O-])cc1` were, in that order, 24.8 µM and 132%.
Turning to `O=C(CCl)Nc1cc(-c2ccccc2)nn1-c1ccccc1`, the IC50 in assay [1] was 11.8 µM. Also, the inhibition in assay [2] is 81.4%.
On the same counts, the results for `C=CS(=O)(=O)c1sc(Cl)c(N2CCOCC2)c1[N+](=O)[O-]` are > 50 µM (inactive) and 10.2%.
The like results for `CC(C)(C)C(=O)Cn1ncc(Cl)c(Cl)c1=O` were, in that order, 7.93 µM and 90.6%.
As to `Cc1nc([N+](=O)[O-])c(Br)n1CC(=O)c1ccccc1`, in assay [1], the IC50 was 1.96 µM. Further, in assay [2], the inhibition was found to be 82.1%.
In the case of `COC(=O)CS(=O)(=O)c1nnc([C@H](Cc2ccccc2)NC(=O)OC(C)(C)C)o1`, the IC50 in assay [1] was > 50 µM (inactive). Also, the inhibition in assay [2] stood at 34.1%.
As for `O=c1c(Cl)c(Cl)cnn1-c1ccccc1`, in assay [1], the IC50 is 9.57 µM. Further, the inhibition in assay [2] came to 81.7%.
In the case of `Nc1nc(Sc2c([N+](=O)[O-])cc(C(F)(F)F)cc2[N+](=O)[O-])n[nH]1`, in assay [1], the IC50 is 21.9 µM. In addition, in assay [2], the inhibition worked out at 44.1%.
Take `N#Cc1cccc(N=c2ssnc2Cl)c1`: the IC50 in assay [1] was > 50 µM (inactive). Moreover, the inhibition in assay [2] was 14.7%.
On the same counts, the results for `Cc1cc(Cl)n2c(nc3cc(F)c(F)cc32)c1C#N` are 25.5 µM and 36.6%.
The like results for `COCCCn1c(O)c(/C=C2\N=C(C#N)C(=Nc3ccc(C)cc3)O2)sc1=S` were, in that order, > 50 µM (inactive) and 11%.
For the molecule `Cc1ccc(NC(=O)CN(C)C(=O)Cn2ncc(Cl)c(Cl)c2=O)cc1`, the IC50 in assay [1] is 7.77 µM. Further, the inhibition in assay [2] is 59%.
In the case of `O=C1C(Cl)=C(Nc2ccc3cn[nH]c3c2)C(=O)c2ccccc21`, the IC50 in assay [1] was 18.2 µM. Moreover, the inhibition in assay [2] came out at 66.6%.
On the same counts, the results for `COc1cc(/C=C(/C(=O)c2cccs2)c2nc3ccccc3[nH]2)cc(OC)c1O` are 13.8 µM and 61.2%.
For the molecule `COc1ccc(-c2nnc(Sc3nc4ccccc4o3)c3ccccc23)cc1`, in assay [1], the IC50 is 27.2 µM. In addition, in assay [2], the inhibition came out at 88.8%.
`O=C(CCl)N(C/C=C/c1ccccc1)c1ccc2c(c1)OCCO2`: the IC50 in assay [1] is 27.1 µM. In addition, the inhibition in assay [2] turned out to be 78.1%.
The like results for `O=C(OCCN1C(=O)c2cccc3c(N4CCOCC4)ccc(c23)C1=O)c1ccc(Cl)cc1Cl` were, in that order, > 50 µM (inactive) and 2.73%.
On to `COC(C/C=C/C(=O)COCc1ccccc1)OC`, for which the IC50 in assay [1] is 8.5 µM. Also, in assay [2], the inhibition stood at 69.3%.
The like results for `COc1cccc(N2C(=O)NC(=O)/C(=C/c3ccc([N+](=O)[O-])s3)C2=O)c1` were, in that order, 10.7 µM and 87.8%.
With `CC(C)(C)C(=O)/C(=C/c1ccncc1)n1cncn1`, the IC50 in assay [1] was 8.77 µM. In addition, the inhibition in assay [2] was found to be 82.3%.
In the case of `CC1(C)CC(=O)C2=C(C1)OC1=C(C(=O)CC(C)(C)C1)C2c1ccc(O)cc1O`, in assay [1], the IC50 was 22.6 µM. Moreover, the inhibition in assay [2] is 65.8%.
As to `CC(=O)OCCCNc1cc(Sc2ccc(Cl)cc2)c2nonc2c1[N+](=O)[O-]`, the IC50 in assay [1] was 41 µM. In assay [2], the inhibition was 60.4%.
On the same counts, the results for `O=c1cc(C(F)(F)F)c2cc3c4c(c2o1)CCCN4CCC3` are 5.51 µM and 99.6%.
On the same counts, the results for `CC(C)CN1C(=O)/C(=C/c2c(N3CCc4ccccc4C3)nc3ccccn3c2=O)SC1=S` are 26 µM and 131%.
As to `CC(C)(C)C(=O)/C=c1\s/c(=C\c2ccc(-c3ccc([N+](=O)[O-])cc3)o2)c(=O)n1CC(=O)NC(N)=O`, the 50% inhibitory concentration (IC50) in assay [1] was 0.825 µM. Besides, the inhibition in assay [2] worked out at 98.8%.
The like results for `COc1cccc(/C=C/C(=O)c2cccc([N+](=O)[O-])c2)c1OC` were, in that order, > 50 µM (inactive) and 27.1%.
On to `C=C1C(=O)[C@@]23[C@H](O)C[C@@H]4C(C)(C)CC[C@H](O)[C@]4(C)[C@@H]2C[C@H](O)[C@@H]1[C@H]3O`, for which, in assay [1], the IC50 is 9.84 µM. For the same molecule, the inhibition in assay [2] stood at 54.9%.
For the molecule `Cc1cc(C)c2c(=O)n(CC(=O)NCCCN3CCN(c4ccccc4F)CC3)sc2n1`, in assay [1], the IC50 is 14 µM. Further, the inhibition in assay [2] turned out to be 96.3%.
Turning to `O=[N+]([O-])c1ccc(-c2ccc(/C=N/Nc3nc(N4CCCCC4)nc(N4CCCCC4)n3)o2)cc1`, the IC50 in assay [1] was > 50 µM (inactive). In addition, the inhibition in assay [2] is 22.5%.
Turning to `CC(=O)n1cc(N(C(=O)CCl)c2ccc([N+](=O)[O-])cc2)c2ccccc21`, the IC50 in assay [1] was > 50 µM (inactive). The inhibition in assay [2] came to 25.2%.
The like results for `Cc1nc([N+](=O)[O-])c(Br)n1CC(=O)c1ccc(Cl)cc1` were, in that order, 13.1 µM and 88.1%.
On the same counts, the results for `COCCCNC(=O)c1ccc2c3c(onc13)-c1ccccc1C2=O` are 16.7 µM and 98.1%.
Take `Cc1ccc(N2C(=O)NC(=O)/C(=C\C=C\c3ccco3)C2=O)cc1C`: the IC50 in assay [1] is 32.4 µM. The inhibition in assay [2] was found to be 83.1%.
On the same counts, the results for `Cc1cc(-c2n[nH]c(=S)n2/N=C/C(Br)=C/c2ccccc2)n[nH]1` are 16.5 µM and 82.9%.

A word on the IC50: it is the midpoint of a concentration-inhibition curve. In general, inhibition refers to the relative decrease from the control value, in per cent.
